Here are results for four compounds from PMC10377643, “Exploration of Bis-Cinnamido-Polyamines as Intrinsic Antimicrobial Agents and Antibiotic Enhancers” (Biomolecules, 2023).

Series [1] relates to HEK293 human embryonic kidney cells. Briefly: Cytotoxicity assay. The class given is cell-based. The settings on record: mean (n = 2). The procedure:
(§1) Cytotoxicity assays were conducted using the protocols previously reported.

The next series in a line: Cytotoxicity assay. The settings on record: human, HEK293 human embryonic kidney cells, mean (n = 2), read-out: Cytotoxicity (IC50), concentration of compound at 50% cytotoxicity. It counts as cell-based, human. The procedure: as §1
Series [2] concerns P. aeruginosa ATCC 27853. Briefly: Antimicrobial MIC, P. aeruginosa. It counts as cell-based. The note with it: Pseudomonas aeruginosa, ATCC27853, mean (n = 3). The essentials: (§2)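 Broth susceptibility MICs against the listed ATCC strains. S. aureus and P. aeruginosa tested per a previously reported protocol; MRSA and C. albicans tested under CO-ADD (University of Queensland) standard protocols.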

Series [3] concerns A. baumannii AYE. The series is described as follows: Intrinsic MIC, A. baumannii AYE. The class given is cell-based. The settings on record: Acinetobacter baumannii; A. baumannii AYE; substance alone; read-out: MIC alone, A. b. The method, then: (§3) Antibiotic enhancer concentrations were determined using previously reported protocols.
In series [4] the test system is C. neoformans ATCC 208821. The series is described as follows: Antifungal MIC, C. neoformans (CO-ADD). The settings on record: Cryptococcus neoformans, ATCC208821, mean (n = 2). The class given is cell-based.
Another series deals with MRSA ATCC 43300. Briefly: Antimicrobial MIC, MRSA (CO-ADD). It counts as cell-based, methicillin-resistant S. aureus. The note with it: Staphylococcus aureus; MRSA ATCC 43300; mean (n = 2); read-out: MIC MRSA. Put shortly: as §2
In series [5] the test system is E. coli ATCC 25922. Briefly: Erythromycin enhancement against E. coli. It counts as cell-based, Escherichia coli. The note with it: erythromycin fixed at 10.9 µM (8 µg/mL). The method, then: as §3
A further series deals with human red blood cells. Briefly: Hemolytic assay. It counts as cell-based. The note with it: mean (n = 2). The procedure: Hemolysis assays were conducted using the protocols previously reported.
For series [6], the system named is K. pneumoniae ATCC 13883. The series is described as follows: Antibiotic potentiation by 13b, K. pneumoniae. It counts as cell-based, Klebsiella pneumoniae. The method, then: as §3
(§4) The antibiotic-enhancing activities of 13b, the strongest non-toxic doxycycline enhancer, were further evaluated with an expanded set of antibiotics (minocycline, chloramphenicol, vancomycin, nalidixic acid and erythromycin) against three drug-resistant strains of Gram-negative bacteria (P. aeruginosa, K. pneumoniae and A. baumannii) (Table 3). […] However, 13b was able to strongly potentiate the activity of minocycline against P. aeruginosa, K. pneumoniae and A. baumannii (>41-fold, >82-fold and >82-fold, respectively) while also enhancing the activity of doxycycline against P. aeruginosa (>40-fold). The enhancing activity of doxycycline against A. baumannii and K. pneumoniae was not investigated due to its sensitivity to these strains.

The test system of series [7] is P. aeruginosa PAO1. Briefly: Antibiotic potentiation by 13b, P. aeruginosa PAO1. The class given is cell-based, Pseudomonas aeruginosa. The method, then: as §3, §4
A further series concerns C. albicans ATCC 90028. Briefly: Antifungal MIC, C. albicans (CO-ADD). The note with it: Candida albicans, ATCC90028, mean (n = 2). The class given is cell-based. The essentials:
as §2

Series [8] has as its system P. aeruginosa ATCC 27853. Briefly: Doxycycline enhancement against P. aeruginosa. The class given is cell-based, Pseudomonas aeruginosa. The settings on record: doxycycline fixed at 4.5 µM. The essentials: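 A fixed doxycycline level of 4.5 μM was combined with test compounds over 3.125 to 50–100 μM against P. aeruginosa ATCC 27853. The top concentration was set by each compound's own MIC, and enhancer concentrations followed a previously reported protocol.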

For series [9], the system named is K. pneumoniae ATCC 13883. Briefly: Intrinsic MIC, K. pneumoniae ATCC 13883. The class given is cell-based. The note with it: Klebsiella pneumoniae, ATCC13883; K. pneumoniae ATCC 13883; substance alone; read-out: MIC alone, K. p. The method, then:
as §3

Series [10] concerns P. aeruginosa PAO1. The series is described as follows: Intrinsic MIC, P. aeruginosa PAO1. It counts as cell-based. The settings on record: Pseudomonas aeruginosa; P. aeruginosa PAO1; substance alone (no antibiotic / no enhancer); read-out: MIC alone, P. a. The method, then:
as §3

The subject of a further series is S. aureus ATCC 25923. Briefly: Antimicrobial MIC, S. aureus. The class given is cell-based. The note with it: Staphylococcus aureus, ATCC25923, mean (n = 3). Put shortly:
as §2

The subject of series [11] is A. baumannii AYE. The series is described as follows: Antibiotic potentiation by 13b, A. baumannii. It counts as cell-based, Acinetobacter baumannii. The method, then: as §3, §4
For series [12], the system named is E. coli ATCC 25922. Briefly: Antimicrobial MIC, E. coli. The settings on record: Escherichia coli, ATCC25922, E. coli ATCC 25922; mean (n = 3). The class given is cell-based, Escherichia coli. The essentials: as §2
The next series relates to Pseudomonas aeruginosa. Also noted: method as in PMID 22515429. The settings on record: natural product; cited from earlier work.
The test system of a further series is S. aureus. Also noted: method as in PMID 22515429. The note with it: natural product; cited from earlier work.
The subject of series [13] is antimicrobial activity (microbes not named). On the set-up: method as in PMID 36982955. The settings on record: cited from earlier work.
A further series relates to P. aeruginosa. Also noted: method as in PMID 36982955. The note with it: cited from earlier work.

Each structure is given as a SMILES string.

For `O=C(C=Cc1ccccc1)NCCCNCCCCCCNCCCNC(=O)C=Cc1ccccc1.O=C(O)C(F)(F)F.O=C(O)C(F)(F)F` [Compound 13b, N^1,N^6-Bis(3-cinnamamidopropyl)hexane-1,6-diaminium 2,2,2-trifluoroacetate], the “Cytotoxicity (IC50), concentration of compound at 50% cytotoxicity” value in [1] is “non-toxic”. Besides, the IC50 in “Cytotoxicity assay” was more than 44.5 µM. The MIC against P. aeruginosa ATCC 27853 [2] is more than 200 µM; in the series with A. baumannii AYE [3], more than 278 µM; in [4] it was 44.5 µM; with MRSA ATCC 43300 it was more than 44.5 µM; in the series on C. albicans ATCC 90028 it was more than 44.5 µM; with K. pneumoniae ATCC 13883 [9], more than 278 µM. Also, the MIC in the series on P. aeruginosa PAO1 [10] was more than 278 µM; against S. aureus ATCC 25923 it was more than 200 µM; with E. coli ATCC 25922 [12] it was 100 µM. The “Eryth/E. c: concentration required to restore erythromycin activity” value in the series on E. coli ATCC 25922 [5] is listed as 25 µM. In addition, the “Eryth/E. c: fold change (intrinsic MIC of test compound / combination MIC)” value in the series with E. coli ATCC 25922 [5] is given as 4 fold. Also, the “Hemolysis (HC10), concentration of compound at 10% hemolytic activity” value in the series with human red blood cells was more than 44.5 µM. Moreover, the “Concentration for potentiation of chloramphenicol” value is on record as more than 200 µM in the series on K. pneumoniae ATCC 13883 [6] (chloramphenicol 2 µg/mL, n = 2); 38.7 µM in the series with P. aeruginosa PAO1 [7] (chloramphenicol 2 µg/mL, n = 2); 77.4 µM with A. baumannii AYE [11] (chloramphenicol 2 µg/mL, n = 2). In addition, the “Concentration for potentiation of erythromycin” value in the series with K. pneumoniae ATCC 13883 [6] (erythromycin 2 µg/mL, n = 2) is more than 200 µM; in the series with P. aeruginosa PAO1 [7] (erythromycin 2 µg/mL, n = 2), 136 µM; in the series with A. baumannii AYE [11] (erythromycin 2 µg/mL, n = 2), 136 µM. Further, the “Fold change, minocycline” value with K. pneumoniae ATCC 13883 [6] (minocycline 2 µg/mL) is given as more than 82 fold; in the series with P. aeruginosa PAO1 [7] (minocycline 2 µg/mL), more than 41 fold; in the series with A. baumannii AYE [11] (minocycline 2 µg/mL) it was more than 82 fold. Moreover, the “Concentration for potentiation of minocycline” value worked out at 3.41 µM in the series with K. pneumoniae ATCC 13883 [6] (minocycline 2 µg/mL, n = 2); 6.83 µM in the series with P. aeruginosa PAO1 [7] (minocycline 2 µg/mL, n = 2); 3.41 µM in the series with A. baumannii AYE [11] (minocycline 2 µg/mL, n = 2). For the same compound, the “Concentration for potentiation of nalidixic acid” value with K. pneumoniae ATCC 13883 [6] (nalidixic acid 2 µg/mL, n = 2) is on record as more than 200 µM; in the series on A. baumannii AYE [11] (nalidixic acid 2 µg/mL, n = 2), more than 200 µM. Moreover, the “Fold change, vancomycin” value with K. pneumoniae ATCC 13883 [6] (vancomycin 2 µg/mL) and in the series with A. baumannii AYE [11] (vancomycin 2 µg/mL) was more than 2 fold each time. Moreover, the “Concentration for potentiation of vancomycin” value in the series on K. pneumoniae ATCC 13883 [6] (vancomycin 2 µg/mL, n = 2) worked out at 138 µM; with A. baumannii AYE [11] (vancomycin 2 µg/mL, n = 2), 138 µM. Besides, the results for the “Fold change, chloramphenicol” value in the series on P. aeruginosa PAO1 [7] (chloramphenicol 2 µg/mL) and with A. baumannii AYE [11] (chloramphenicol 2 µg/mL) were more than 7 fold and more than 4 fold, respectively. For the same compound, the “Fold change, doxycycline” value in the series on P. aeruginosa PAO1 [7] (doxycycline 2 µg/mL) is more than 40 fold. In addition, in the series with P. aeruginosa PAO1 [7] (doxycycline 2 µg/mL, n = 2), the “Concentration for potentiation of doxycycline” value was 7.03 µM. Moreover, the “Fold change, erythromycin” value in the series on P. aeruginosa PAO1 [7] (erythromycin 2 µg/mL) and with A. baumannii AYE [11] (erythromycin 2 µg/mL) was more than 2 fold in each case. The “Dox/P. a: concentration required to restore doxycycline activity” value in the series with P. aeruginosa ATCC 27853 [8] amounted to 3.125 µM.
For `COc1c(Br)cc(/C=C/C(=O)NCCCNCCCCNCCCNC(=O)/C=C/c2cc(Br)c(OC)c(Br)c2)cc1Br.O=C(O)C(F)(F)F.O=C(O)C(F)(F)F` [Compound 16a, N^1,N^4-Bis(3-((E)-3-(3,5-dibromo-4-methoxyphenyl)acrylamido)propyl)butane-1,4-diaminium 2,2,2-trifluoroacetate], in “Cytotoxicity assay”, the IC50 was more than 30 µM. Further, the MIC in the series on P. aeruginosa ATCC 27853 [2] is 188 µM; in [4] it was not above 0.23 µM; in the series on MRSA ATCC 43300, not above 0.23 µM; against C. albicans ATCC 90028, 30 µM; in the series with S. aureus ATCC 25923, 5.86 µM; in the series with E. coli ATCC 25922 [12], 11.7 µM. Also, the “Eryth/E. c: concentration required to restore erythromycin activity” value in the series on E. coli ATCC 25922 [5] is listed as 11.7 µM. Moreover, the “Eryth/E. c: fold change (intrinsic MIC of test compound / combination MIC)” value with E. coli ATCC 25922 [5] worked out at 1 fold. Also, the “MIC towards Pseudomonas aeruginosa” value in the series with Pseudomonas aeruginosa is listed as 8.75 µM. Moreover, in the series on human red blood cells, the “Hemolysis (HC10), concentration of compound at 10% hemolytic activity” value is on record as not above 0.23 µM. Moreover, the “Dox/P. a: concentration required to restore doxycycline activity” value with P. aeruginosa ATCC 27853 [8] is recorded as 5.86 µM. Also, in the series with P. aeruginosa ATCC 27853 [8], the “Dox/P. a: fold change (intrinsic MIC of test compound / combination MIC)” value is recorded as 32 fold. Further, the “MIC, growth inhibition towards S. aureus” value with S. aureus is 17.5 µM.
With `O=C(CCc1ccccc1)NCCCNCCCCCCNCCCNC(=O)CCc1ccccc1` [Compound 17], the Antimicrobial activity result in [13] is recorded as “devoid of antimicrobial activity”. Besides, the “Ability to enhance the action of doxycycline towards P. aeruginosa” value with P. aeruginosa is reported as “devoid”.
On to `O=C(CCc1ccccc1)NCCCNCCCCCCCCNCCCNC(=O)CCc1ccccc1` [Compound 18], for which, in [13], the Antimicrobial activity entry is reported as “devoid of antimicrobial activity”. Also, the “Ability to enhance the action of doxycycline towards P. aeruginosa” value in the series with P. aeruginosa was “devoid”.

As usually defined, the MIC is the lowest concentration found to suppress growth.
